Earlier results, collected in patent publication US20110263720A1, “SYNTHESIS OF ALPHA-TOCOPHEROLQUINONE DERIVATIVES, AND METHODS OF USING THE SAME” (Penwest Pharmaceuticals Co., priority 2010, published 2011).

Tested on: mitochondrial function
Conditions: in vitro; compared with CoQ10; background statement, no data

In the case of `CC1=C(C)C(=O)C(CC[C@](C)(O)CCC[C@H](C)CCC[C@H](C)CCCC(C)C)=C(C)C1=O` [R,R,R-alpha-tocopherolquinone], the “potency in enhancing mitochondrial function” value is given as “far more potent than CoQ^10”.
